Test results reported in patent US7491819B1 (priority 2004, dated 2009).

biological target: T1, HIV-integrase (Human immunodeficiency virus type 1 group M subtype B, UniProt P12497); assay: HIV-Integrase Inhibition Activity (SPA bead strand-transfer assay); type: biochemical; conditions: Table 1; read-out: Activity (HIV-integrase inhibition, IC50 class)
T1 construct: Recombinant integrase (0.26 ng) was incubated with the beads
Procedure: HIV-Integrase Inhibition Activity. To evaluate in-vitro activity against HIV-integrase, 5 pmole of biotin labeled substrate DNA was bound to 100 μg of Streptavidin coated PVT SPA beads (Amersham Pharmacia Biotech). Recombinant integrase (0.26 ng) was incubated with the beads for 90 min at 37° C. Unbound enzyme was removed by washing the complex followed by addition of inhibitors and 0.1 fmol of P33 labeled target DNA. The reaction was stopped by adding EDTA to a final concentration of 10 mM. Samples were counted in TopCountNXT (Packard) and the CPM was used as a measure of integration. The reaction condition was as described in A. Engelman and R. Craigie, J. Virol 69, 5908-5911 (1995). The sequences of substrate and target DNA were described in Nucleic Acid Research 22, 1121-1122 (1994).

Structure (SMILES)	IC50
CC1(C)OCCn2c1nc(C(=O)NCc1ccc(F)cc1-n1cnc(C(=O)O)n1)c(O)c2=O [Example 61, 1H-1,2,4-Triazole-3-carboxylic acid, 1-[5-fluoro-2-[[[(4,6,7,9-tetrahydro-3-hydroxy-9,9-dimethyl-4-oxopyrimido[2,1-c][1,4]oxazin-2-yl)carbonyl]amino]methyl]phenyl]-]	2 to 100 nM
CC1(C)OCCn2c1nc(C(=O)NCc1ccc(F)cc1-n1cnc(C(=O)N3CCOCC3)n1)c(O)c2=O [Example 62, Pyrimido[2,1-c][1,4]oxazine-2-carboxamide, N-[[4-fluoro-2-[3-(4-morpholinylcarbonyl)-1H-1,2,4-triazol-1-yl]phenyl]methyl]-4,6,7,9-tetrahydro-3-hydroxy-9,9-dimethyl-4-oxo-]	2 to 100 nM
CN(C)C(=O)c1ncn(-c2cc(F)ccc2CNC(=O)c2nc3n(c(=O)c2O)CCOC3(C)C)n1 [Example 63, Pyrimido[2,1-c][1,4]oxazine-2-carboxamide, N-[[2-[3-[(dimethylamino)carbonyl]-1H-1,2,4-triazol-1-yl]-4-fluorophenyl]methyl]-4,6,7,9-tetrahydro-3-hydroxy-9,9-dimethyl-4-oxo-]	2 to 100 nM
CC1(C)OCCn2c1nc(C(=O)NCc1ccc(F)cc1-n1cnc(C(=O)NS(C)(=O)=O)n1)c(O)c2=O [Example 64, Pyrimido[2,1-c][1,4]oxazine-2-carboxamide, N-[[4-fluoro-2-[3-[[(methylsulfonyl)amino]carbonyl]-1H-1,2,4-triazol-1-yl]phenyl]methyl]-4,6,7,9-tetrahydro-3-hydroxy-9,9-dimethyl-4-oxo-]	2 to 100 nM
CNC(=O)c1ncn(-c2cc(F)ccc2CNC(=O)c2nc3n(c(=O)c2O)CCOC3(C)C)n1 [Example 65, Pyrimido[2,1-c][1,4]oxazine-2-carboxamide, 4,6,7,9-tetrahydro-3-hydroxy-N-[(1R)-2-hydroxy-1-phenylethyl]-9,9-dimethyl-4-oxo-]	2 to 100 nM
CC(=O)N1CCN(C(=O)c2ncn(-c3cc(F)ccc3CNC(=O)c3nc4n(c(=O)c3O)CCOC4(C)C)n2)CC1 [Example 66, Pyrimido[2,1-c][1,4]oxazine-2-carboxamide, N-[[2-[3-[(4-acetyl-1-piperazinyl)carbonyl]-1H-1,2,4-triazol-1-yl]-4-fluorophenyl]methyl]-4,6,7,9-tetrahydro-3-hydroxy-9,9-dimethyl-4-oxo-]	2 to 100 nM
CN(CCO)C(=O)c1ncn(-c2cc(F)ccc2CNC(=O)c2nc3n(c(=O)c2O)CCOC3(C)C)n1 [Example 67, Pyrimido[2,1-c][1,4]oxazine-2-carboxamide, N-[[4-fluoro-2-[3-[[(2-hydroxyethyl)methylamino]carbonyl]-1H-1,2,4-triazol-1-yl]phenyl]methyl]-4,6,7,9-tetrahydro-3-hydroxy-9,9-dimethyl-4-oxo-]	2 to 100 nM
CC1(C)OCCn2c1nc(C(=O)NCc1ccc(F)cc1-n1cnc(C(=O)NS(=O)(=O)c3ccc(F)cc3)n1)c(O)c2=O [Example 68, Pyrimido[2,1-c][1,4]oxazine-2-carboxamide, N-[[4-fluoro-2-[3-[[[(4-fluorophenyl)sulfonyl]amino]carbonyl]-1H-1,2,4-triazol-1-yl]phenyl]methyl]-4,6,7,9-tetrahydro-3-hydroxy-9,9-dimethyl-4-oxo-]	2 to 100 nM
CN1CCN(C(=O)c2ncn(-c3cc(F)ccc3CNC(=O)c3nc4n(c(=O)c3O)CCOC4(C)C)n2)CC1 [Example 69, Pyrimido[2,1-c][1,4]oxazine-2-carboxamide, N-[[4-fluoro-2-[3-[(4-methyl-1-piperazinyl)carbonyl]-1H-1,2,4-triazol-1-yl]phenyl]methyl]-4,6,7,9-tetrahydro-3-hydroxy-9,9-dimethyl-4-oxo-]	2 to 100 nM
CN(C)CCNC(=O)c1ncn(-c2cc(F)ccc2CNC(=O)c2nc3n(c(=O)c2O)CCOC3(C)C)n1 [Example 70, Pyrimido[2,1-c][1,4]oxazine-2-carboxamide, N-[[2-[3-[[[2-(dimethylamino)ethyl]amino]carbonyl]-1H-1,2,4-triazol-1-yl]-4-fluorophenyl]methyl]-4,6,7,9-tetrahydro-3-hydroxy-9,9-dimethyl-4-oxo-]	2 to 100 nM
CN(C)CCN(C)C(=O)c1ncn(-c2cc(F)ccc2CNC(=O)c2nc3n(c(=O)c2O)CCOC3(C)C)n1 [Example 71, Pyrimido[2,1-c][1,4]oxazine-2-carboxamide, N-[[2-[3-[[[2-(dimethylamino)ethyl]methylamino]carbonyl]-1H-1,2,4-triazol-1-yl]-4-fluorophenyl]methyl]-4,6,7,9-tetrahydro-3-hydroxy-9,9-dimethyl-4-oxo-]	2 to 100 nM
CC1(C)OCCn2c1nc(C(=O)NCc1ccc(F)cc1-n1cnc(C(=O)NCCO)n1)c(O)c2=O [Example 72, Pyrimido[2,1-c][1,4]oxazine-2-carboxamide, N-[[4-fluoro-2-[3-[[(2-hydroxyethyl)amino]carbonyl]-1H-1,2,4-triazol-1-yl]phenyl]methyl]-4,6,7,9-tetrahydro-3-hydroxy-9,9-dimethyl-4-oxo-]	2 to 100 nM
CC1(C)OCCn2c1nc(C(=O)NCc1ccc(F)cc1I)c(O)c2=O [Example 73, Pyrimido[2,1-c][1,4]oxazine-2-carboxamide, N-[(4-fluoro-2-iodophenyl)methyl]-4,6,7,9-tetrahydro-3-hydroxy-9,9-dimethyl-4-oxo-]	2 to 100 nM
CC1(C)OCCn2c1nc(C(=O)NCc1ccc(F)cc1-c1ccccc1)c(O)c2=O [Example 74, Pyrimido[2,1-c][1,4]oxazine-2-carboxamide, N-[(5-fluoro[1,1′-biphenyl]-2-yl)methyl]-4,6,7,9-tetrahydro-3-hydroxy-9,9-dimethyl-4-oxo-]	2 to 100 nM
CC1(C)OCCn2c1nc(C(=O)NCc1ccc(F)cc1-c1cccnc1)c(O)c2=O [Example 75, Pyrimido[2,1-c][1,4]oxazine-2-carboxamide, N-[[4-fluoro-2-(3-pyridinyl)phenyl]methyl]-4,6,7,9-tetrahydro-3-hydroxy-9,9-dimethyl-4-oxo-]	2 to 100 nM
COc1ccc(-c2cc(F)ccc2CNC(=O)c2nc3n(c(=O)c2O)CCOC3(C)C)cn1 [Example 77, Pyrimido[2,1-c][1,4]oxazine-2-carboxamide, N-[[4-fluoro-2-(6-methoxy-3-pyridinyl)phenyl]methyl]-4,6,7,9-tetrahydro-3-hydroxy-9,9-dimethyl-4-oxo]	2 to 100 nM
CC1(C)OCCn2c1nc(C(=O)NCc1ccc(F)cc1-c1ccc[nH]c1=O)c(O)c2=O [Example 78, Pyrimido[2,1-c][1,4]oxazine-2-carboxamide, N-[[2-(1,2-dihydro-2-oxo-3-pyridinyl)-4-fluorophenyl]methyl]-4,6,7,9-tetrahydro-3-hydroxy-9,9-dimethyl-4-oxo-]	2 to 100 nM
CC1(C)OCCn2c1nc(C(=O)NCc1ccc(F)cc1-c1ccc(=O)[nH]c1)c(O)c2=O [Example 79, Pyrimido[2,1-c][1,4]oxazine-2-carboxamide, N-[[2-(1,6-dihydro-6-oxo-3-pyridinyl)-4-fluorophenyl]methyl]-4,6,7,9-tetrahydro-3-hydroxy-9,9-dim ethyl-4-oxo-]	2 to 100 nM
CC1(C)OCCn2c1nc(C(=O)NCc1ccc(F)cc1-c1cccc(=O)[nH]1)c(O)c2=O [Example 80, Pyrimido[2,1-c][1,4]oxazine-2-carboxamide, N-[[2-(1,6-dihydro-6-oxo-2-pyridinyl)-4-fluorophenyl]methyl]-4,6,7,9-tetrahydro-3-hydroxy-9,9-dimethyl-4-oxo-]	2 to 100 nM
Cc1ncn(-c2cc(F)ccc2CNC(=O)c2nc3n(c(=O)c2O)CCOC3(C)C)n1 [Example 81, Pyrimido[2,1-c][1,4]oxazine-2-carboxamide, N-[[4-fluoro-2-(3-methyl-1H-1,2,4-triazol-1-yl)phenyl]methyl]-4,6,7,9-tetrahydro-3-hydroxy-9,9-dimethyl-4-oxo-]	2 to 100 nM
Cc1ncnn1-c1cc(F)ccc1CNC(=O)c1nc2n(c(=O)c1O)CCOC2(C)C [Example 82, Pyrimido[2,1-c][1,4]oxazine-2-carboxamide, N-[[4-fluoro-2-(5-methyl-1H-1,2,4-triazol-1-yl)phenyl]methyl]-4,6,7,9-tetrahydro-3-hydroxy-9,9-dimethyl-4-oxo-]	2 to 100 nM
Cc1ncn(-c2ccc(CNC(=O)c3nc4n(c(=O)c3O)CCOC4(C)C)c(F)c2)n1 [Example 83, Pyrimido[2,1-c][1,4]oxazine-2-carboxamide, N-[[2-fluoro-4-(3-methyl-1H-1,2,4-triazol-1-yl)phenyl]methyl]-4,6,7,9-tetrahydro-3-hydroxy-9,9-dimethyl-4-oxo-]	> 1000 nM
CC1(C)OCCn2c1nc(C(=O)NCc1ccc(F)cc1-c1csnn1)c(O)c2=O [Example 84, Pyrimido[2,1-c][1,4]oxazine-2-carboxamide, N-[[4-fluoro-2-(1,2,3-thiadiazol-4-yl)phenyl]methyl]-4,6,7,9-tetrahydro-3-hydroxy-9,9-dimethyl-4-oxo-]	2 to 100 nM
CC1(C)OCCn2c1nc(C(=O)NCc1ccc(F)cc1-c1ccn[nH]1)c(O)c2=O [Example 85, Pyrimido[2,1-c][1,4]oxazine-2-carboxamide, N-[[4-fluoro-2-(1H-pyrazol-5-yl)phenyl]methyl]-4,6,7,9-tetrahydro-3-hydroxy-9,9-dimethyl-4-oxo-]	2 to 100 nM
Cc1cnc(-c2cc(F)ccc2CNC(=O)c2nc3n(c(=O)c2O)CCOC3(C)C)o1 [Example 86, Pyrimido[2,1-c][1,4]oxazine-2-carboxamide, N-[[4-fluoro-2-(5-methyl-2-oxazolyl)phenyl]methyl]-4,6,7,9-tetrahydro-3-hydroxy-9,9-dimethyl-4-oxo-]	2 to 100 nM
